Experimental data taken from patent publication US9409884B2 (Rigel Pharmaceuticals, Inc., priority 2012, dated 2016).
One block for each compound: values may come before it.

Target: AMPK
Assay: AMPK activation, enzyme-linked immunosorbent assay
Format: biochemical
How it was run: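 AMPK activation by test compounds was measured by enzyme-linked immunosorbent assay.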

EC50 (Table 12, compounds of Table 5): 20 to 50 µM
Structure (SMILES): O=C(c1ccc(OC2CCN(Cc3ccccc3)CC2)cc1)N1CCN(c2ccccc2)CC1 [Compound 5-103, (4-(1-benzylpiperidin-4-yloxy)phenyl)(4-phenylpiperazin-l-yl)methanone]

EC50 (Table 13, compounds of Table 6): < 0.1 µM
Structure (SMILES): COc1ccc(CN2CCC(NC(=O)c3cc4cc(C(=O)N5CCN(c6ccc(C(F)(F)F)cc6)CC5)ccc4o3)CC2)cc1 [Compound 6-119, N-(1-(4-methoxybenzyl)piperidin-4-yl)-5-(4-(4-(trifluoromethyl)phenyl)piperazine-1-carbonyl) benzofuran-2-carboxamide]

EC50 (Table 13, compounds of Table 6): < 0.1 µM
Structure (SMILES): N#Cc1ccc(CN2CCC(NC(=O)c3cc4cc(C(=O)N5CCN(Cc6cnn(-c7ccc(C#N)cc7)c6)CC5)ccc4o3)CC2)cc1 [Compound 6-77, N-(1-(4-cyanobenzyl)piperidin-4-yl)-5-(4-((1-(4-cyanophenyl)-1H-pyrazol-4-yl)methyl)piperazine-1-carbonyl)benzofuran-2-carboxamide]

EC50 (Table 10, compounds of Table 3): < 0.1 µM
Structure (SMILES): N#Cc1ccc(CN2CCC(NC(=O)c3ccc4c(c3)CN(Cc3ccc(C#N)cc3)CC4)CC2)cc1 [Compound 3-37, 2-(4-cyanobenzyl)-N-(1-(4-cyanobenzyl)piperidin-4-yl)-1,2,3,4-tetrahydroisoquinoline-7-carboxamide]

EC50 (Table 9, compounds of Table 2): 1 to 5 µM
Structure (SMILES): O=C(NC1CCN(S(=O)(=O)c2ccc(C(F)(F)F)cc2)CC1)c1ccc2[nH]c3c(c2c1)CN(Cc1ccc(C(F)(F)F)cc1)CC3 [Compound 2-23, 2-(4-(trifluoromethyl)benzyl)-N-(1-(4-(trifluoromethyl)phenylsulfonyl)piperidin-4-yl)-2,3,4,5-tetrahydro-1H-pyrido[4,3-b]indole-8-carboxamide]

EC50 (Table 13, compounds of Table 6): < 0.1 µM
Structure (SMILES): N#Cc1ccc(CN2CCC(NC(=O)c3cc4cc(C(=O)N5CCC(Oc6ccc(F)cc6)CC5)ccc4o3)CC2)cc1 [Compound 6-19, N-(1-(4-cyanobenzyl)piperidin-4-yl)-5-(4-(4-fluorophenoxy)piperidine-1-carbonyl)benzofuran-2-carboxamide]

EC50 (Table 12, compounds of Table 5): < 1 µM
Structure (SMILES): O=C(NC1CCN(Cc2ccc(Cl)cc2)CC1)c1ccc(OC2CCN(Cc3ccc(F)c(F)c3)CC2)c(F)c1 [Compound 5-71, N-(1-(4-chlorobenzyl)piperidin-4-yl)-4-(1-(3,4-difluorobenzyl)piperidin-4-yloxy)-3-fluorobenzamide]

EC50 (Table 14, compounds of Table 7): < 1 µM
Structure (SMILES): COc1ccc(CN2CCC(NC(=O)c3ccc(C(=O)N4CCC(C(=O)c5ccc(OC)cc5)CC4)nc3)[C@H](F)C2)cc1 (stereo partly drawn) [Compound 7-26, N-((3,4-trans)-3-fluoro-1-(4-methoxybenzyl)piperidin-4-yl)-6-(4-(4-methoxybenzoyl)piperidine-1-carbonyl)nicotinamide]

EC50 (Table 8, compounds of Table 1): 0.1 to 0.5 µM
Structure (SMILES): O=C(NC1CCNCC1)c1cc2ccc(OC3CCN(c4ccc(C(F)(F)F)cc4)CC3)cc2s1 [Compound 1-141, N-(piperidin-4-yl)-6-(1-(4-(trifluoromethyl)phenyl)piperidin-4-yloxy)benzo[b] thiophene-2-carboxamide]

EC50 (Table 8, compounds of Table 1): 1 to 5 µM
Structure (SMILES): CC(C)(C)OC(=O)N1CC[C@@H](NC(=O)c2cc3cc(OC4CCN(c5ccc(C(F)(F)F)cc5)CC4)ccc3o2)C1 [Compound 1-120, (R)-tert-butyl 3-(5-(1-(4-(trifluoromethyl)phenyl)piperidin-4-yloxy)benzofuran-2-carboxamido) pyrrolidine-1-carboxylate]

EC50 (Table 10, compounds of Table 3): < 0.1 µM
Structure (SMILES): N#Cc1ccc(CN2CCc3ccc(C(=O)NC4CCN(Cc5cccnc5)CC4)cc3C2)cc1 [Compound 3-38, 2-(4-cyanobenzyl)-N-(1-(pyridin-3-ylmethyl)piperidin-4-yl)-1,2,3,4-tetrahydroisoquinoline-7-carboxamide]

EC50 (Table 9, compounds of Table 2): < 0.5 µM
Structure (SMILES): N#Cc1ccc(CN2CCC(NC(=O)c3ccc4[nH]c5c(c4c3)CN(Cc3ccc(F)cc3)CC5)CC2)cc1 [Compound 2-9, N-(1-(4-cyanobenzyl)piperidin-4-yl)-2-(4-fluorobenzyl)-2,3,4,5-tetrahydro-1H-pyrido[4,3-b]indole-8-carboxamide]
